This is an account of results in paper PMC11589570, “Critical assessment of LC3/GABARAP ligands used for degrader development and ligandability of LC3/GABARAP binding pockets” (Nature Communications, 2024).

Values joined by “and” are separate entries in the source; they are usually repeats but may differ in a detail not shown here. Equal entries are not always repeated.

Assay in all cases: FP assay with Cy5-labelled p62 LIR tracer (protein titration and tracer displacement)
Assay type in all cases: binding

In one test the target is LC3A (Homo sapiens, UniProt Q9H492). The conditions noted are these: for % tracer bound @LC3A: LC3A tracer displacement, normalized on p62-LIR positive control; for compound titration LC3A (displacement curve, FP signal): two replicate columns per compound.
The target in the next test is LC3B (Homo sapiens, UniProt Q9GZQ8). Particulars: for normalized FP signal, p62 LIR tracer displacement: LC3B; for compound titration LC3B (displacement curve, FP signal): two replicate columns per compound.
For the next test, the target named is GABARAPL1 (Homo sapiens, UniProt Q9H0R8). The conditions noted are these: for compound titration GABARAPL1 (displacement curve, FP signal): two replicate columns per compound; for FP tracer displacement curve signal (compound titration): duplicate values, listed as KT3.
The target in the next test is LC3C (Homo sapiens, UniProt Q9BXW4). Particulars: two replicate columns per compound.
Another test concerns the target GABARAP (Homo sapiens, UniProt O95166). The conditions noted are these: two replicate columns per compound.
Setting [1] is: log10 concentration [M] -3.82391.
Setting [2] is: log10 concentration [M] -4.1549.
The mark [3] stands for this setting: log10 concentration [M] -4.60206.
Setting [4] is: log10 concentration [M] -5.30103.
The mark [5] stands for this setting: log10 concentration [M] -5.69897.
[6] abbreviates: log10 concentration [M] -6.22185.
Setting [7] is: log10 concentration [M] -6.69897.
Where [8] appears, read: log10 concentration [M] -7.30103.
[9] abbreviates: log10 concentration [M] -7.79588.
The mark [10] stands for this setting: log10 concentration [M] -8.08092.

LC3C, sequence (Q9BXW4 1-126): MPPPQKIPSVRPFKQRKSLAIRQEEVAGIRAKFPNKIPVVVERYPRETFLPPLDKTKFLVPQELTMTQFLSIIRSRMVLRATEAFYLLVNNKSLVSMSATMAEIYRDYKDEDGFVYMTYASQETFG
GABARAP, sequence (O95166 1-116): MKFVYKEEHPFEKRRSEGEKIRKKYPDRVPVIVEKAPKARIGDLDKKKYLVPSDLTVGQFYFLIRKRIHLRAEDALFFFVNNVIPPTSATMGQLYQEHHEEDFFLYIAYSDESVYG
GABARAPL1, sequence (Q9H0R8 whole entry): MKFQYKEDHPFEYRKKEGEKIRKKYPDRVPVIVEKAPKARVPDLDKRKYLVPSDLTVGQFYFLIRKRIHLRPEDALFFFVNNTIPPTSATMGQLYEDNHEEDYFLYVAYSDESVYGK

`CCCCCCC(Sc1nc2ccc(NCc3ccc(Cl)c(Cl)c3)cc2s1)C(=O)O` (centres unmarked) [TH198]: the “% tracer bound @LC3A” value on LC3A came out at 79%.

Consider `CCCCCCC(Sc1nc2ccc(NCc3ccc(-c4ccccc4)cc3)cc2s1)C(=O)O` (centres unmarked) [TH200], for which, on LC3A, the “% tracer bound @LC3A” value is reported as 72%.

Consider `O=C(NCc1ccccc1)c1ccc(S(=O)(=O)Nc2ccccc2)cc1` [TH253], for which the “% tracer bound @LC3A” value on LC3A came to 88%.

For `Cc1ccc(NS(=O)(=O)c2ccc(C(=O)N(C)Cc3ccccc3)cc2)cc1` [TH281], on LC3A, the “% tracer bound @LC3A” value is 95%.

In the case of `CN(Cc1ccccc1)C(=O)c1ccc(S(=O)(=O)Nc2ccccc2)cc1` [TH676], on LC3A, the “% tracer bound @LC3A” value is 84%.

Turning to `CCN(Cc1ccccc1)C(=O)c1ccc(S(=O)(=O)Nc2ccccc2)cc1` [TH677], on LC3A, the “% tracer bound @LC3A” value is 87%.

For `Cc1ccc(S(=O)(=O)Nc2cc(SCC(=O)O)c(O)c3ccccc23)c(C)c1` [compound 10], the “compound titration LC3A (displacement curve, FP signal)” value at LC3A (setting [1]) was 94.4737 and 100; at LC3A (setting [2]) it was 97.6316 and 101.053; at LC3A (setting [3]) it was 101.579 and 103.947; at LC3A (log10 concentration [M] -5), 101.842 and 104.737; at LC3A (setting [4]), 100.789 and 103.421; at LC3A (setting [5]), 102.895 and 93.1579. For the same molecule, the “compound titration LC3A (displacement curve, FP signal)” value at LC3A (setting [6]) is 105 and 102.368; on LC3A (setting [7]), 102.368 and 100; on LC3A (setting [8]) it was 104.211 and 92.8947; at LC3A (setting [9]), 101.579 and 94.2105; on LC3A (setting [10]), 105 and 96.5789. Also, the “normalized FP signal, p62 LIR tracer displacement” value on LC3B (setting [1]) is 54.7368 and 57.3684; on LC3B (setting [2]), 91.8421 and 94.4737; at LC3B (setting [3]), 99.4737 and 97.8947; on LC3B (log10 concentration [M] -5), 98.6842 and 95; on LC3B (setting [4]) it was 95 and 96.0526; on LC3B (setting [5]) it was 96.5789 and 95.2632. Also, the “normalized FP signal, p62 LIR tracer displacement” value at LC3B (setting [6]) is 93.4211 and 99.4737; on LC3B (setting [7]) it was 97.3684 and 96.8421; on LC3B (setting [8]), 102.368 and 100.789; at LC3B (setting [9]), 96.3158 and 98.1579; at LC3B (setting [10]), 102.632 and 92.6316. Further, the “compound titration LC3B (displacement curve, FP signal)” value at LC3B (setting [1]) is 54.7368 and 57.3684; on LC3B (setting [2]), 91.8421 and 94.4737; at LC3B (setting [3]), 99.4737 and 97.8947; at LC3B (log10 concentration [M] -5), 98.6842 and 95; on LC3B (setting [4]), 95 and 96.0526; on LC3B (setting [5]), 96.5789 and 95.2632. For the same molecule, the “compound titration LC3B (displacement curve, FP signal)” value was 93.4211 and 99.4737 on LC3B (setting [6]); 97.3684 and 96.8421 at LC3B (setting [7]); 102.368 and 100.789 at LC3B (setting [8]); 96.3158 and 98.1579 at LC3B (setting [9]); 102.632 and 92.6316 on LC3B (setting [10]). The “compound titration GABARAPL1 (displacement curve, FP signal)” value at GABARAPL1 (setting [1]) is 17.7143 and 20.8571; at GABARAPL1 (setting [2]), 50 and 53.2857; on GABARAPL1 (setting [3]), 99.5714 and 102.429; at GABARAPL1 (log10 concentration [M] -5) it was 98.1429 and 100.714. In addition, the “FP tracer displacement curve signal (compound titration)” value at GABARAPL1 (setting [5]) was 94.7143 and 94.1429; on GABARAPL1 (setting [6]) it was 100 and 100.429; on GABARAPL1 (setting [7]), 100.857 and 101.429; at GABARAPL1 (setting [8]), 101.857 and 99.1429; on GABARAPL1 (setting [9]), 100 and 94.7143; at GABARAPL1 (setting [10]), 101.714 and 99.2857. Moreover, the “compound titration LC3C (displacement curve, FP signal)” value is 22.4 and 20.2 on LC3C (setting [1]); 56.4 and 57.6 at LC3C (setting [2]); 96.2 and 100.8 at LC3C (setting [3]); 96.2 and 98.8 on LC3C (log10 concentration [M] -5); 97.8 and 100.6 at LC3C (setting [4]); 90 and 87.6 on LC3C (setting [5]). For the same molecule, the “compound titration LC3C (displacement curve, FP signal)” value was 95.8 and 98.8 on LC3C (setting [6]); 98.6 and 99.4 at LC3C (setting [7]); 79.6 and 99.8 at LC3C (setting [8]); 95.2 and 97.2 on LC3C (setting [9]); 99 and 100.4 at LC3C (setting [10]). Moreover, the “compound titration GABARAP (displacement curve, FP signal)” value was 16.2069 and 14.4828 on GABARAP (setting [1]); 54.3103 and 56.3793 on GABARAP (setting [2]); 99.3103 and 96.0345 on GABARAP (setting [3]); 94.4828 and 101.034 at GABARAP (log10 concentration [M] -5); 97.931 and 100.345 on GABARAP (setting [4]); 88.6207 and 93.1034 on GABARAP (setting [5]). In addition, the “compound titration GABARAP (displacement curve, FP signal)” value on GABARAP (setting [6]) is 93.9655 and 97.069; at GABARAP (setting [7]), 96.7241 and 100.862; on GABARAP (setting [8]) it was 95.5172 and 99.1379; on GABARAP (setting [9]), 95.6897 and 96.8966; at GABARAP (setting [10]) it was 97.7586 and 100.69.
